Experimental findings from US20240398811A1, “PRC2 INHIBITORS FOR USE IN TREATING BLOOD DISORDERS” (ORIC Pharmaceuticals, Inc., priority 2021, published 2024) are described below.

The target in this test is purified human, His-tagged PRC2 complex (Homo sapiens (Human), UniProt O75530). Nature of the test: Hot Spot HMT assay, inhibition of PRC2 enzymatic activity. The class given is biochemical. To be noted: 10 nM PRC2 complex, 1 μM 3H-SAM, core histone H3, 10-point dose-response. The procedure, abridged: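 Methyl transfer from 1 μM tritiated SAM onto 0.05 mg/ml core histone H3, catalysed by 10 nM His/Flag-tagged human PRC2 holoenzyme, was run 1 hr at 30° C after a 20 min compound preincubation. Serial dilutions began at 1.0 μM; product captured on filters and counted.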
Chain of purified human, His-tagged PRC2 complex (O75530 whole entry): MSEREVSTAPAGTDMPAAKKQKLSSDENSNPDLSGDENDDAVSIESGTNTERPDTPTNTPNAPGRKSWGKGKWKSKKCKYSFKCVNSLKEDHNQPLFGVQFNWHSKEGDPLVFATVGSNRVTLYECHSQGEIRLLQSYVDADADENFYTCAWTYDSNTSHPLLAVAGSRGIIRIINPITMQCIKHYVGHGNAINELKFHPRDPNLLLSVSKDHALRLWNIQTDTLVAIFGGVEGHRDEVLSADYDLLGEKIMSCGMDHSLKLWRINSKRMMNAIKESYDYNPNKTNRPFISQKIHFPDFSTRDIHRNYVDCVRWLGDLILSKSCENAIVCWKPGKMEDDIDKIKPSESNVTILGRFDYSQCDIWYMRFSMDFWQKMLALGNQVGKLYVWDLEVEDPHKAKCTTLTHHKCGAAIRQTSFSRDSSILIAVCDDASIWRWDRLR
Chain of purified human, His-tagged PRC2 complex (Q15910 whole entry partner): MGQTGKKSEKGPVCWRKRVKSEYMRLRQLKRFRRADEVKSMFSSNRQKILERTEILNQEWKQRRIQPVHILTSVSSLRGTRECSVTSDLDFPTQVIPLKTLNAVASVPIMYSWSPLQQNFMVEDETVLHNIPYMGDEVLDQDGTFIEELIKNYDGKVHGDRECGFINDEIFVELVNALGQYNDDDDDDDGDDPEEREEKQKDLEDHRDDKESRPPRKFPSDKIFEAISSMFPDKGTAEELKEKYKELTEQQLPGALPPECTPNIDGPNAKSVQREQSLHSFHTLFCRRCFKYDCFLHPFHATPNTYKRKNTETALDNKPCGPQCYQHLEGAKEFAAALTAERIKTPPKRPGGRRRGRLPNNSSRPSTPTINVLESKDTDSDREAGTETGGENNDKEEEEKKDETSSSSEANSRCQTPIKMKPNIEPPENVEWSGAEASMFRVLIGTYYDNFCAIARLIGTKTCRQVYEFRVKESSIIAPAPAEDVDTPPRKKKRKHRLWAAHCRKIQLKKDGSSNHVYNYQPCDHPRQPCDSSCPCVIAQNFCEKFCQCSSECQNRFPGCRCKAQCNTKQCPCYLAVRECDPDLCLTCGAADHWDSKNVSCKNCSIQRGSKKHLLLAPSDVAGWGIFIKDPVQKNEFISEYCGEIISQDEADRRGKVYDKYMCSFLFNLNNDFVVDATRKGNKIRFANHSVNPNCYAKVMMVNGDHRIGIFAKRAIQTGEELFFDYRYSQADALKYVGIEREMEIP
Chain of purified human, His-tagged PRC2 complex (Q15022 whole entry partner): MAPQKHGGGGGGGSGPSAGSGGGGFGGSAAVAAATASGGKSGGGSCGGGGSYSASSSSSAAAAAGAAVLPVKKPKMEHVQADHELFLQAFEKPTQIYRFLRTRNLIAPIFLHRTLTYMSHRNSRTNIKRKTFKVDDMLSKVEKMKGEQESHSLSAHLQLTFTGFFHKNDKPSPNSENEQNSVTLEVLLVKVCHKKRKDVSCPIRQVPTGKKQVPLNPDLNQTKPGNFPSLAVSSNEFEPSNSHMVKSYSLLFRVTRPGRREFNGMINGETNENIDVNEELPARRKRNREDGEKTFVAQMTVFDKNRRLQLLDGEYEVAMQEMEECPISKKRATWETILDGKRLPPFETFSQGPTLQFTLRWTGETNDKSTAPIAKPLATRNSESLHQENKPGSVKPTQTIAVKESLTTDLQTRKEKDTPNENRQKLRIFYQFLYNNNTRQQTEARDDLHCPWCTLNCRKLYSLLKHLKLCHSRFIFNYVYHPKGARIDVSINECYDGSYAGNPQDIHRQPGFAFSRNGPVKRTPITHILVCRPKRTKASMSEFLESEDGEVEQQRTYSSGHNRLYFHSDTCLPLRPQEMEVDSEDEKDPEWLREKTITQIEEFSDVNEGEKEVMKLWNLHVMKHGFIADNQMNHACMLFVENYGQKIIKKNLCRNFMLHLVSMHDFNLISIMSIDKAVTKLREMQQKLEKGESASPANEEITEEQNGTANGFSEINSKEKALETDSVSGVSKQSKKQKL
Chain of purified human, His-tagged PRC2 complex (Q6ZN18 whole entry partner): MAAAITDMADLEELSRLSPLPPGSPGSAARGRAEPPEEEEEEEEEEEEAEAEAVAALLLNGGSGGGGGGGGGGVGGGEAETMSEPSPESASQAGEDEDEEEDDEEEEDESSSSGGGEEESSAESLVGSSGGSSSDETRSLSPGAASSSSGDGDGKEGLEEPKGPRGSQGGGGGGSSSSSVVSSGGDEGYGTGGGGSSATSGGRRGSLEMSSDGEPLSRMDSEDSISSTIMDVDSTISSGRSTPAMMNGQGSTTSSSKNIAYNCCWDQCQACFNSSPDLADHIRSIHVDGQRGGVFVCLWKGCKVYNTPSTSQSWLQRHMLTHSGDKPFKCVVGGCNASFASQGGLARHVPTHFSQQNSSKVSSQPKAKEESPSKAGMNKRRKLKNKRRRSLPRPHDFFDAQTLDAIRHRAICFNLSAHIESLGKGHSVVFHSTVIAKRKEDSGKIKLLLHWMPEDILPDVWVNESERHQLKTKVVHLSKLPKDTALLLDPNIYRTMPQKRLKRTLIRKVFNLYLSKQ
Chain of purified human, His-tagged PRC2 complex (Q09028 whole entry partner): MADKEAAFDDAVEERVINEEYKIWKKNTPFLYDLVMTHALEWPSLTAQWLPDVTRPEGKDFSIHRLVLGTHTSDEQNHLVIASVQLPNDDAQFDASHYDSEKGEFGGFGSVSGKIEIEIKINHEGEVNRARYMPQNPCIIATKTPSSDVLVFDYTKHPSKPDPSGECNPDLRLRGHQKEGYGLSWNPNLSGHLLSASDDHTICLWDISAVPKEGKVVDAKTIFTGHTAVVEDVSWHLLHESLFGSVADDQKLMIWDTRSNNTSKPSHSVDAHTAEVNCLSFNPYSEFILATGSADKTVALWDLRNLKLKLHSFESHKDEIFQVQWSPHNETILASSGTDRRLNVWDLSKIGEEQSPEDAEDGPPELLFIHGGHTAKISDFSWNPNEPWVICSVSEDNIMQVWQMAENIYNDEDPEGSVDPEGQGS
For orientation: IC50 means the point on the concentration scale where inhibition reaches its midpoint. Higher therefore signals a need for much substance. The compound `Cc1ncccc1-c1cnc(NCc2c(F)ccc3c2CCO3)n2cc(C(N)=O)nc12` [Example 137, 5-(((5-fluoro-2,3-dihydrobenzofuran-4-yl)methyl)amino)-8-(2-methylpyridin-3-yl)imidazo[1,2-c]pyrimidine-2-carboxamide] registered a half-maximal inhibitory concentration (IC50) of less than 0.1 µM.
For `Cc1nc(N2CCN(C)CC2)ccc1-c1cnc(NCc2c(F)ccc3c2CCO3)n2cc(C(N)=O)nc12` [Example 138, 5-(((5-fluoro-2,3-dihydrobenzofuran-4-yl)methyl)amino)-8-(2-methyl-6-(4-methylpiperazin-1-yl)pyridin-3-yl)imidazo[1,2-c]pyrimidine-2-carboxamide], the IC50 was less than 0.1 µM.
In turn, `N#Cc1cn2c(NCc3c(F)ccc4c3CCO4)ncc(C3CCOCC3)c2n1` [Example 141, 5-(((5-fluoro-2,3-dihydrobenzofuran-4-yl)methyl)amino)-8-(tetrahydro-2H-pyran-4-yl)imidazo[1,2-c]pyrimidine-2-carbonitrile] gave a half-maximal inhibitory concentration (IC50) greater than 0.5 µM.
With `N#Cc1cn2c(NCc3c(F)ccc4c3CCO4)ncc(-c3cccnn3)c2n1` [Example 142, 5-(((5-fluoro-2,3-dihydrobenzofuran-4-yl)methyl)amino)-8-(pyridazin-3-yl)imidazo[1,2-c]pyrimidine-2-carbonitrile] the figure was less than 0.1 µM; with `Cn1nncc1-c1cnc(NCc2c(F)ccc3c2CCO3)n2cc(C#N)nc12` [Example 143, 5-(((5-fluoro-2,3-dihydrobenzofuran-4-yl)methyl)amino)-8-(1-methyl-1H-1,2,3-triazol-5-yl)imidazo[1,2-c]pyrimidine-2-carbonitrile], less than 0.1 µM.
Take `Cn1nc(C2CC2)cc1-c1cnc(NCc2c(F)ccc3c2CCO3)n2cc(C#N)nc12` [Example 144, 8-(3-cyclopropyl-1-methyl-1H-pyrazol-5-yl)-5-(((5-fluoro-2,3-dihydrobenzofuran-4-yl)methyl)amino)imidazo[1,2-c]pyrimidine-2-carbonitrile]: the 50% inhibitory concentration (IC50) is less than 0.1 µM.
On to `Cc1nc(-c2cnc(NCc3c(F)ccc4c3CCO4)n3cc(C#N)nc23)c(C)s1` [Example 145, 8-(2,5-dimethylthiazol-4-yl)-5-(((5-fluoro-2,3-dihydrobenzofuran-4-yl)methyl)amino)imidazo[1,2-c]pyrimidine-2-carbonitrile], for which the concentration for half-maximal inhibition (IC50) is 0.1 to 0.5 µM.
`N#Cc1cn2c(NCc3c(F)ccc4c3CCO4)ncc(-c3ccccn3)c2n1` [Example 146, 5-(((5-fluoro-2,3-dihydrobenzofuran-4-yl)methyl)amino)-8-(pyridin-2-yl)imidazo[1,2-c]pyrimidine-2-carbonitrile] displayed a half-inhibitory concentration (IC50) of 0.1 to 0.5 µM.
Turning to `N#Cc1cn2c(NCc3c(F)ccc4c3CCO4)ncc(-c3ccc(CO)nc3)c2n1` [Example 147, 5-(((5-fluoro-2,3-dihydrobenzofuran-4-yl)methyl)amino)-8-(6-(hydroxymethyl)pyridin-3-yl)imidazo[1,2-c]pyrimidine-2-carbonitrile], the IC50 was in the range of 0.1 to 0.5 µM.
Turning to `N#Cc1cn2c(NCc3c(F)ccc4c3CCO4)ncc(-c3cccnc3CO)c2n1` [Example 148, 5-(((5-fluoro-2,3-dihydrobenzofuran-4-yl)methyl)amino)-8-(2-(hydroxymethyl)pyridin-3-yl)imidazo[1,2-c]pyrimidine-2-carbonitrile], the IC50 was less than 0.1 µM.
The value for `CN(C)Cc1c(F)cc(-c2cnc(NCc3c(F)ccc4c3CCO4)n3cc(C#N)nc23)cc1F` [Example 149, 8-(4-((dimethylamino)methyl)-3,5-difluorophenyl)-5-(((5-fluoro-2,3-dihydrobenzofuran-4-yl)methyl)amino)imidazo[1,2-c]pyrimidine-2-carbonitrile] was 0.1 to 0.5 µM; that for `N#Cc1cn2c(NCc3c(F)ccc4c3CCO4)ncc(-c3ccc(CN4CC(O)C4)cc3)c2n1` [Example 150, 5-(((5-fluoro-2,3-dihydrobenzofuran-4-yl)methyl)amino)-8-(4-((3-hydroxyazetidin-1-yl)methyl)phenyl)imidazo[1,2-c]pyrimidine-2-carbonitrile] was less than 0.1 µM; that for `N#Cc1cn2c(NCc3c(F)ccc4c3CCO4)ncc(-c3ccc(CN4CCC(O)C4)cc3)c2n1` (centres unmarked) [Example 151, 5-(((5-fluoro-2,3-dihydrobenzofuran-4-yl)methyl)amino)-8-(4-((3-hydroxypyrrolidin-1-yl)methyl)phenyl)imidazo[1,2-c]pyrimidine-2-carbonitrile] was less than 0.1 µM.
In the case of `Cc1nc(CN(C)C)ccc1-c1cnc(NCc2c(F)ccc3c2CCO3)n2cc(C#N)nc12` [Example 152, 8-(6-((dimethylamino)methyl)-2-methylpyridin-3-yl)-5-(((5-fluoro-2,3-dihydrobenzofuran-4-yl)methyl)amino)imidazo[1,2-c]pyrimidine-2-carbonitrile], the IC50 fell in the range of 0.1 to 0.5 µM.
The value for `N#Cc1cn2c(NCc3c(F)ccc4c3CCO4)ncc(-c3ccn(CC4CCCO4)n3)c2n1` (centres unmarked) [Example 153, 5-(((5-fluoro-2,3-dihydrobenzofuran-4-yl)methyl)amino)-8-(1-((tetrahydrofuran-2-yl)methyl)-1H-pyrazol-3-yl)imidazo[1,2-c]pyrimidine-2-carbonitrile] was 0.1 to 0.5 µM; that for `N#Cc1cn2c(NCc3c(F)ccc4c3CCO4)ncc(-c3cnn(CC4CCOC4)c3)c2n1` (centres unmarked) [Example 154, 5-(((5-fluoro-2,3-dihydrobenzofuran-4-yl)methyl)amino)-8-(1-((tetrahydrofuran-3-yl)methyl)-1H-pyrazol-4-yl)imidazo[1,2-c]pyrimidine-2-carbonitrile] was 0.1 to 0.5 µM; that for `Cc1cc(-c2cnc(NCc3c(F)ccc4c3C(O)CO4)n3cc(C#N)nc23)n(C)n1` (centres unmarked) [Example 155, 8-(1,3-dimethyl-1H-pyrazol-5-yl)-5-(((5-fluoro-3-hydroxy-2,3-dihydrobenzofuran-4-yl)methyl)amino)imidazo[1,2-c]pyrimidine-2-carbonitrile] was less than 0.1 µM.
The value for `Cn1cccc(-c2cnc(NCc3c(F)ccc4c3CCO4)n3cc(C#N)nc23)c1=O` [Example 156, 5-(((5-fluoro-2,3-dihydrobenzofuran-4-yl)methyl)amino)-8-(1-methyl-2-oxo-1,2-dihydropyridin-3-yl)imidazo[1,2-c]pyrimidine-2-carbonitrile] was 0.1 to 0.5 µM.
With `Cn1nc(C(=O)O)cc1-c1cnc(NCc2c(F)ccc3c2CCO3)n2cc(C#N)nc12` [Example 157, 5-(2-cyano-5-(((5-fluoro-2,3-dihydrobenzofuran-4-yl)methyl)amino)imidazo[1,2-c]pyrimidin-8-yl)-1-methyl-1H-pyrazole-3-carboxylic acid], the IC50 is less than 0.1 µM.
Compound `COCCOc1ccc(-c2cnc(NCc3c(F)ccc4c3CCO4)n3cc(C#N)nc23)cn1` [Example 158, 5-(((5-fluoro-2,3-dihydrobenzofuran-4-yl)methyl)amino)-8-(6-(2-methoxyethoxy)pyridin-3-yl)imidazo[1,2-c]pyrimidine-2-carbonitrile] had an IC50 of 0.1 to 0.5 µM.
`CN1CCc2cc(-c3cnc(NCc4c(F)ccc5c4CCO5)n4cc(C#N)nc34)ccc2C1` [Example 159, 5-(((5-fluoro-2,3-dihydrobenzofuran-4-yl)methyl)amino)-8-(2-methyl-1,2,3,4-tetrahydroisoquinolin-6-yl)imidazo[1,2-c]pyrimidine-2-carbonitrile] came in with an IC50 of 0.1 to 0.5 µM.
In turn, `CN1CCCC1c1ccc(-c2cnc(NCc3c(F)ccc4c3CCO4)n3cc(C#N)nc23)cc1` (centres unmarked) [Example 160, 5-(((5-fluoro-2,3-dihydrobenzofuran-4-yl)methyl)amino)-8-(4-(1-methylpyrrolidin-2-yl)phenyl)imidazo[1,2-c]pyrimidine-2-carbonitrile] gave a 50% inhibitory concentration (IC50) of less than 0.1 µM.
The value for `COCCOc1ccc(-c2cnc(NCc3c(F)ccc4c3CCO4)n3cc(C#N)nc23)cc1` [Example 161, 5-(((5-fluoro-2,3-dihydrobenzofuran-4-yl)methyl)amino)-8-(4-(2-methoxyethoxy)phenyl)imidazo[1,2-c]pyrimidine-2-carbonitrile] was less than 0.1 µM; that for `N#Cc1cn2c(NCc3c(F)ccc4c3CCO4)ncc(-c3ccc(C4CCCO4)cc3)c2n1` (centres unmarked) [Example 162, 5-(((5-fluoro-2,3-dihydrobenzofuran-4-yl)methyl)amino)-8-(4-(tetrahydrofuran-2-yl)phenyl)imidazo[1,2-c]pyrimidine-2-carbonitrile] was less than 0.1 µM.
In the case of `CN(C)CCc1ccc(-c2cnc(NCc3c(F)ccc4c3CCO4)n3cc(C#N)nc23)cc1` [Example 163, 8-(4-(2-(dimethylamino)ethyl)phenyl)-5-(((5-fluoro-2,3-dihydrobenzofuran-4-yl)methyl)amino)imidazo[1,2-c]pyrimidine-2-carbonitrile], the IC50 was less than 0.1 µM.
The value for `CCOP(=O)(OCC)c1ccc(-c2cnc(NCc3c(F)ccc4c3CCO4)n3cc(C#N)nc23)cc1` [Example 164, diethyl (4-(2-cyano-5-(((5-fluoro-2,3-dihydrobenzofuran-4-yl)methyl)amino)imidazo[1,2-c]pyrimidin-8-yl)phenyl)phosphonate] was less than 0.1 µM.
With `[2H]C([2H])(Nc1ncc(-c2ccc(CN(C)C)cc2)c2nc(C#N)cn12)c1c(F)ccc2c1CCO2` [Example 165, 8-(4-((dimethylamino)methyl)phenyl)-5-(((5-fluoro-2,3-dihydrobenzofuran-4-yl)methyl-d2)amino)imidazo[1,2-c]pyrimidine-2-carbonitrile] the figure was less than 0.1 µM.
`COC(=O)c1ccc(-c2cnc(NCc3c(F)ccc4c3CCO4)n3cc(C#N)nc23)cn1` [Example 166, methyl 5-(2-cyano-5-(((5-fluoro-2,3-dihydrobenzofuran-4-yl)methyl)amino)imidazo[1,2-c]pyrimidin-8-yl)picolinate] registered an IC50 of less than 0.1 µM.
Take `COC(=O)c1ccc(-c2cnc(NCc3c(F)ccc4c3CCO4)n3cc(C#N)nc23)cc1` [Example 167, methyl 4-(2-cyano-5-(((5-fluoro-2,3-dihydrobenzofuran-4-yl)methyl)amino)imidazo[1,2-c]pyrimidin-8-yl)benzoate]: the IC50 fell in the range of 0.1 to 0.5 µM.
